Assays:
B7-1/CD28 = target: T1, B7-1/CD28 (Homo sapiens, UniProt P33681); experiment: CD28/B7-1 ELISA (B7-1/CD28 binding inhibition); conditions: CD28-Fc coated wells; B7-1-Fc-biotin/streptavidin-alkaline phosphatase detection complex; 1% DMSO
T1 sequence (P33681 35-242 limits assumed): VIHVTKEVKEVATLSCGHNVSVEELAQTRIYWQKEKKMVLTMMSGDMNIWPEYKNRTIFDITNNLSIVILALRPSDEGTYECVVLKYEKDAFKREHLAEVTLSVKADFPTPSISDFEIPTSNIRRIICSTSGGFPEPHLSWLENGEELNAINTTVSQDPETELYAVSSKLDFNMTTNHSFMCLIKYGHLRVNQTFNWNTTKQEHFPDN
Description: Evaluation of B7-1/CD28 Binding Inhibition for Test Compounds
Wells are coated with 300 ng CD28-Fc in carbonate buffer (pH 9.4) overnight at 4° C., blocked with 1% bovine serum albumin in tris-buffered saline (TBS) for 1 h at 22° C. and washed 3 times in TBS prior to assay. The detection complex is formed as follows: B7-1-Fc-biotin, prepared using NHS-LC-biotin (Pierce #21335) according to the manufacturers instructions (4.1 moles biotinimole Fc), is added at 0.8 ug/ml to streptavidin-alkaline phosphatase (Caltag Sa1008) at 1:1000 in TBS. A solution of test compound in dimethylsulfoxide (1% final) are added to this complex and incubated 30 min at 22° C. Detection complex (+/−inhibitors) is then added to the CD28 coated wells for 25 min at 22° C., washed 5 times with TBS, developed with the colorimetric substrate pNPP (Pierce #34045) in diethanolamine/MgCl2 buffer (pH 9.5) and read at 405 nm. The inhibition constant (IC50) is calculated by subtracting background binding and comparing to uninhibited (DMSO alone) controls. The inhibition constant represents the concentration of test compound required to achieve 50% inhibition.

SMILES	IC50 (B7-1/CD28)	melting point
Cn1ncc2c3[nH]n(-c4cccc(C(=O)N5CCCC5)c4)c(=O)c3c(-c3cccc(C(F)(F)F)c3)nc21 [Example 11, 6-methyl-2-[3-(1-pyrrolidinylcarbonyl)phenyl]-4-[3-(trifluoromethyl)phenyl]-1,6-dihydrodipyrazolo[3,4-b:3,4-d]pyridin-3(2H)-one]	44 nM	255 to 258 °C
Cn1ncc2c3[nH]n(-c4cccc(C(=O)N5CCC[C@@H]5C(=O)O)c4)c(=O)c3c(-c3cccc(C(F)(F)F)c3)nc21 [Example 13, (2R)-1-[3-(6-methyl-3-oxo-4-[3-(trifluoromethyl)phenyl]-3,6-dihydrodipyrazolo[3,4-b:3,4-d]pyridin-2(1H)-yl)benzoyl]-2-pyrrolidinecarboxylic acid]	20 nM	199 to 202 °C
Cn1ncc2c3[nH]n(-c4cccc(C(=O)NCc5ccc(N)cc5)c4)c(=O)c3c(-c3cccc(C(F)(F)F)c3)nc21 [Example 16]	57 nM	183 °C (dec.)
COc1cc(CNC(=O)c2cccc(-n3[nH]c4c(c(-c5cccc(C(F)(F)F)c5)nc5c4cnn5C)c3=O)c2)ccc1O [Example 17]	55 nM	172 to 176 °C
Cn1ncc2c3[nH]n(-c4cccc(C(=O)NCc5ccc(O)c(O)c5)c4)c(=O)c3c(-c3cccc(C(F)(F)F)c3)nc21 [Example 18, N-(3,4-dihydroxybenzyl)-3-(6-methyl-3-oxo-4-[3-(trifluoromethyl)phenyl]-3,6-dihydrodipyrazolo[3,4-b:3,4-d]pyridin-2(1H)-yl)benzamide]	9 nM	177.7 to 179.8 °C
Cn1ncc2c3[nH]n(-c4ccc(Cl)c(C(=O)NCc5ccc(O)c(O)c5)c4)c(=O)c3c(-c3cccc(C(F)(F)F)c3)nc21 [Example 21]	22 nM	212 to 215 °C
Cn1ncc2c3[nH]n(-c4ccc(Cl)c(C(=O)N5CCC[C@@H]5C(=O)O)c4)c(=O)c3c(-c3cccc(C(F)(F)F)c3)nc21 [Example 22, 1-{2-chloro-5-[6-methyl-3-oxo-4-[3-(trifluoromethyl)pheny]-3,6-dihydrodipyrazolo[3,4-b:3′,4′-d]pyridin-2(1H)-yl]benzoyl}-D-proline]	44 nM	214 to 218 °C
CC(O)c1cccc(NC(=O)c2ccc(-n3[nH]c4c(c(-c5cccc(C(F)(F)F)c5)nc5c4cnn5C)c3=O)cc2F)c1 (stereo not drawn) [Example 24]	110 nM	> 350 °C
CC(O)c1cccc(NC(=O)c2ccc(-n3[nH]c4c(c(-c5cccc(C(F)(F)F)c5)nc5c4cnn5C)c3=O)cc2)c1 (stereo not drawn) [Example 25]	3 nM	251 to 254 °C
COC(=O)C1CCN(C(=O)c2ccc(-n3[nH]c4c(c(-c5cccc(C(F)(F)F)c5)nc5c4cnn5C)c3=O)cc2)CC1 [Example 26]	90 nM	187 °C (dec.)
CN1CCN(C(=O)c2ccc(-n3[nH]c4c(c(-c5cccc(C(F)(F)F)c5)nc5c4cnn5C)c3=O)cc2)CC1 [Example 27]	500 nM	191 to 194 °C
Cn1ncc2c3[nH]n(-c4ccc(C(=O)NCCCO)cc4)c(=O)c3c(-c3cccc(C(F)(F)F)c3)nc21 [Example 28]	98 nM	193 to 195 °C
COCc1cccc(NC(=O)c2ccc(-n3[nH]c4c(c(-c5cccc(C(F)(F)F)c5)nc5c4cnn5C)c3=O)cc2)c1 [Example 29]	110 nM	210 °C (dec.)
Cn1ncc2c3[nH]n(-c4ccc(C(=O)N5CCOCC5)c(F)c4)c(=O)c3c(-c3cccc(C(F)(F)F)c3)nc21 [Example 30]	310 nM	176 to 179 °C
Cn1ncc2c3[nH]n(-c4ccc(C(=O)NCc5ccccc5)cc4)c(=O)c3c(-c3cccc(C(F)(F)F)c3)nc21 [Example 32]	79 nM	189 to 192 °C
Cn1ncc2c3[nH]n(-c4ccc(C(=O)N5CCOCC5)cc4)c(=O)c3c(-c3cccc(C(F)(F)F)c3)nc21 [Example 33, 6-methyl-2-[4-(4-morpholinylcarbonyl)phenyl]-4-[3-(trifluoromethyl)phenyl]-1,6-dihydrodipyrazolo[3,4-b:3,4-d]pyridin-3(2H)-one]	13 nM	287 to 290 °C
Cn1ncc2c3[nH]n(-c4ccc(C(=O)Nc5ccc(CCO)cc5)cc4)c(=O)c3c(-c3cccc(C(F)(F)F)c3)nc21 [Example 34]	23 nM	186 to 189 °C
Cn1ncc2c3[nH]n(-c4ccc(C(=O)N5CCCC(CO)C5)cc4)c(=O)c3c(-c3cccc(C(F)(F)F)c3)nc21 (stereo not drawn) [Example 36]	180 nM	189.8 to 192.7 °C
Cn1ncc2c3[nH]n(-c4ccc(C(=O)NCCCCO)cc4)c(=O)c3c(-c3cccc(C(F)(F)F)c3)nc21 [Example 37]	88 nM	280 °C (dec.)

SMILES	IC50 (B7-1/CD28)	melting point
CC(=O)c1cccc(NC(=O)c2ccc(-n3[nH]c4c(c(-c5cccc(C(F)(F)F)c5)nc5c4cnn5C)c3=O)cc2)c1 [Example 38]	44 nM	300 °C (dec.)
Cc1c(CO)cccc1NC(=O)c1ccc(-n2[nH]c3c(c(-c4cccc(C(F)(F)F)c4)nc4c3cnn4C)c2=O)cc1 [Example 84]	90 nM	–
CN(CCC(N)=O)C(=O)c1ccc(-n2[nH]c3c(c(-c4cccc(C(F)(F)F)c4)nc4c3cnn4C)c2=O)cc1 [Example 85]	1800 nM	–
Cn1ncc2c3[nH]n(-c4ccc(C(=O)Nc5ccccc5CO)cc4)c(=O)c3c(-c3cccc(C(F)(F)F)c3)nc21 [Example 86]	40 nM	–
Cn1ncc2c3[nH]n(-c4ccc(C(=O)Nc5ccc(CO)cc5)cc4)c(=O)c3c(-c3cccc(C(F)(F)F)c3)nc21 [Example 87]	44 nM	–
CCN(CC)C(=O)C1CCCN(C(=O)c2ccc(-n3[nH]c4c(c(-c5cccc(C(F)(F)F)c5)nc5c4cnn5C)c3=O)cc2)C1 (stereo not drawn) [Example 88]	290 nM	–
CN(C)CCCNC(=O)c1ccc(-n2[nH]c3c(c(-c4cccc(C(F)(F)F)c4)nc4c3cnn4C)c2=O)cc1 [Example 90]	160 nM	–
Cn1ncc2c3[nH]n(-c4ccc(C(=O)NCc5ccc(F)cc5)cc4)c(=O)c3c(-c3cccc(C(F)(F)F)c3)nc21 [Example 91]	67 nM	–
Cn1ncc2c3[nH]n(-c4ccc(C(=O)N5CCC(O)CC5)cc4)c(=O)c3c(-c3cccc(C(F)(F)F)c3)nc21 [Example 94]	1200 nM	–
Cn1ncc2c3[nH]n(-c4ccc(C(=O)N5CCCC(O)C5)cc4)c(=O)c3c(-c3cccc(C(F)(F)F)c3)nc21 (stereo not drawn) [Example 95]	390 nM	–
Cn1ncc2c3[nH]n(-c4ccc(C(=O)NCCCCCO)cc4)c(=O)c3c(-c3cccc(C(F)(F)F)c3)nc21 [Example 96]	92 nM	–
CCC(O)c1cccc(NC(=O)c2ccc(-n3[nH]c4c(c(-c5cccc(C(F)(F)F)c5)nc5c4cnn5C)c3=O)cc2)c1 (stereo not drawn) [Example 100]	800 nM	–
Cn1ncc2c3[nH]n(-c4ccc(S(=O)(=O)NCCCCCO)cc4)c(=O)c3c(-c3cccc(C(F)(F)F)c3)nc21 [Example 102, N-(5-Hydroxypentyl)-4-{6-methyl-3-oxo-4-[3-(trifluoromethyl)phenyl]-3,6-dihydrodipyrazolo[3,4-b:3′,4′-d]pyridin-2(1H)-yl}benzenesulfonamide]	670 nM	–
Cn1ncc2c3[nH]n(-c4ccc(S(=O)(=O)NCc5ccccc5)cc4)c(=O)c3c(-c3cccc(C(F)(F)F)c3)nc21 [Example 103, N-benzyl-4-[6-methyl-3-oxo-4-(3-trifluoromethyl-phenyl)-3,6-dihydro-1H-1,2,5,6,7-pentaaza-as-indacen-2-yl]-benzenesulfonamide]	1500 nM	–
Cn1ncc2c3[nH]n(-c4ccc(S(=O)(=O)NCCO)cc4)c(=O)c3c(-c3cccc(C(F)(F)F)c3)nc21 [Example 104, N-(2-hydroxyethyl)-4-(6-methyl-3-oxo-4-[3-(trifluoromethyl)phenyl]-3,6-dihydrodipyrazolo[3,4-b:3,4-d]pyridin-2(1H)-yl)benzenesulfonamide]	950 nM	–
COC(=O)CNS(=O)(=O)c1ccc(-n2[nH]c3c(c(-c4cccc(C(F)(F)F)c4)nc4c3cnn4C)c2=O)cc1 [Example 105, methyl ({[4-(6-methyl-3-oxo-4-[3-(trifluoromethyl)phenyl]-3,6-dihydrodipyrazolo[3,4-b:3,4-d]pyridin-2(1H)-yl)phenyl]sulfonyl}amino)acetate]	340 nM	–
Cn1ncc2c3[nH]n(-c4ccc(S(=O)(=O)NCC5CC5)cc4)c(=O)c3c(-c3cccc(C(F)(F)F)c3)nc21 [Example 106, N-cyclopropylmethyl-4-[6-methyl-3-oxo-4-(3-trfluoromethyl-phenyl)-3,6-dihydro-1H-1,2,5,6,7-pentaaza-as-indacen-2-yl]-benzenesulfonamide]	900 nM	–
Cn1ncc2c3[nH]n(-c4ccc(S(=O)(=O)NCC(=O)O)cc4)c(=O)c3c(-c3cccc(C(F)(F)F)c3)nc21 [Example 107, ({[4-(6-methyl-3-oxo-4-[3-(trifluoromethyl)phenyl]-3,6-dihydrodipyrazolo[3,4-b:3,4-d]pyridin-2(1H)-yl)phenyl]sulfonyl}amino)acetic acid]	450 nM	–

From patent US6734190B2, “Dihydrodipyrazolopyridinylbenzamide and -sulfonamide inhibitors of B7-1” (Wyeth, priority 2002, dated 2004)
